{"source": "ChEMBL document CHEMBL5154921", "about": "“Discovery and Characterization of the First Nonpeptide Antagonists for the Relaxin-3/RXFP3 System” (J Med Chem, 2022)", "key": {"[1]": {"test": "Cmax in Wistar rat plasma at 10 mg/kg, ip measured upto 8 hrs post dose by LC-MS/MS analysis", "assay_type": "ADME, organism-based", "parameters": "time < 8 hrs, dose 10 mg/kg, route ip", "settings": "in vivo"}, "[2]": {"test": "Cmax in Wistar rat brain at 10 mg/kg, ip measured upto 8 hrs post dose by LC-MS/MS analysis", "assay_type": "ADME, organism-based", "parameters": "time < 8 hrs, dose 10 mg/kg, route ip"}, "[3]": {"test": "Tmax in Wistar rat plasma at 10 mg/kg, ip measured upto 8 hrs post dose by LC-MS/MS analysis", "assay_type": "ADME, organism-based", "settings": "in vivo"}, "[4]": {"test": "Tmax in Wistar rat brain at 10 mg/kg, ip measured upto 8 hrs post dose by LC-MS/MS analysis", "assay_type": "ADME, organism-based", "settings": "in vivo"}, "[5]": {"test": "Unbound clearence in Wistar rat plasma at 10 mg/kg, ip measured upto 8 hrs post dose by LC-MS/MS analysis", "assay_type": "ADME, organism-based", "settings": "in vivo"}, "[6]": {"test": "Half life in Wistar rat plasma at 10 mg/kg, ip measured upto 8 hrs post dose by LC-MS/MS analysis", "assay_type": "ADME, organism-based", "settings": "in vivo"}, "[7]": {"test": "Half life in Wistar rat brain at 10 mg/kg, ip measured upto 8 hrs post dose by LC-MS/MS analysis", "assay_type": "ADME, organism-based", "settings": "in vivo"}, "[8]": {"test": "AUCinfinity in Wistar rat plasma at 10 mg/kg, ip measured upto 8 hrs post dose by LC-MS/MS analysis", "assay_type": "ADME, organism-based", "parameters": "dose 10 mg/kg, time < 8 hrs, route ip", "settings": "in vivo"}, "[9]": {"test": "AUCinfinity in Wistar rat brain at 10 mg/kg, ip measured upto 8 hrs post dose by LC-MS/MS analysis", "assay_type": "ADME, organism-based", "parameters": "dose 10 mg/kg, time < 8 hrs, route ip"}, "[10]": {"test": "Ratio of AUC in brain to plasma or Wistar rat at 10 mg/kg, ip measured upto 8 hrs post dose by LC-MS/MS analysis", "assay_type": "ADME, organism-based"}, "[11]": {"target": "T1, Relaxin-3 receptor 1 (Homo sapiens, UniProt Q9NSD7)", "T1 sequence (Q9NSD7 whole entry)": "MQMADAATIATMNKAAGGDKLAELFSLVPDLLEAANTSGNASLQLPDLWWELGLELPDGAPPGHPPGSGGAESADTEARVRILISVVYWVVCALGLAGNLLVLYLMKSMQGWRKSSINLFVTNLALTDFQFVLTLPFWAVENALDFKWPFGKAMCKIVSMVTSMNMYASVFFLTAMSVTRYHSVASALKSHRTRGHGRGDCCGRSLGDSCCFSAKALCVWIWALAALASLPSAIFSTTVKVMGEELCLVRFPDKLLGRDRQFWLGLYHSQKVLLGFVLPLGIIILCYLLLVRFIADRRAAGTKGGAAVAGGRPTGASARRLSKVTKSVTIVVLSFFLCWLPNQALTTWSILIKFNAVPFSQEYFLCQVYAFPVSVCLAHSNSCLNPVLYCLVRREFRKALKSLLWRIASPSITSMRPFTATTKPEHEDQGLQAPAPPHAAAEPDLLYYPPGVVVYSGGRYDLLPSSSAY", "test": "Antagonist activity at human RXFP3 expressed in CHO-K1 cells assessed as [35S]GTPgammaS binding incubated for 1 hr by [35S]GTP-gammaS binding assay", "assay_type": "functional, cell-based"}, "[12]": {"target": "Relaxin-3 receptor 1 (Homo sapiens) (UniProt Q9NSD7)", "test": "Negative allosteric modulator activity at human RXFP3 expressed in CHO-K1 cells assessed as forskolin-induced cAMP accumulation at 3 to 30 uM measured after 30 mins in presence of relaxin-3 by TR-FRET assay", "assay_type": "functional, cell-based", "settings": "filed as negative allosteric modulator, dose 3-30 µM"}, "[13]": {"target": "Relaxin-3 receptor 1 (Homo sapiens) (UniProt Q9NSD7)", "test": "Negative allosteric modulator activity at human RXFP3 expressed in CHO-K1 cells assessed as [35S]GTPgammaS binding at 10 to 30 uM incubated for 1 hr by [35S]GTP-gammaS binding assay", "assay_type": "functional, cell-based", "settings": "filed as negative allosteric modulator, dose 10-30 µM"}, "[14]": {"target": "T1, Relaxin-3 receptor 1", "test": "Antagonist activity at human RXFP3 expressed in CHO-K1 cells assessed as inhibition of relaxin-3 stimulated ERK1/2 phosphorylation preincubated for 15 mins followed by relaxin-3 addition for 5 mins", "assay_type": "functional, cell-based"}, "[15]": {"target": "Relaxin-3 receptor 2 (Homo sapiens) (UniProt Q8TDU9)", "sequence (Q8TDU9 whole entry)": "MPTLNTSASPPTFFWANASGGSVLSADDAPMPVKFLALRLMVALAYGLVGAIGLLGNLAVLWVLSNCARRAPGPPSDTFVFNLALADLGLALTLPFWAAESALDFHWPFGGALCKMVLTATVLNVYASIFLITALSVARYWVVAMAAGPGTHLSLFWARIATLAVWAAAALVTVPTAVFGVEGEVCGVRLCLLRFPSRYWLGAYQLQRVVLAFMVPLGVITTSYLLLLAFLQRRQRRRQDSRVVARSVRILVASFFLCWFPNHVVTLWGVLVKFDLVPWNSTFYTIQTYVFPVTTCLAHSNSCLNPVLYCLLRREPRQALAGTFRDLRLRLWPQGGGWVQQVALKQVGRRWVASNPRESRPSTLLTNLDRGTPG", "test": "Antagonist activity at human RXFP4 expressed […]-K1 cells assessed as forskolin-induced cAMP accumulation at 100 uM incubated for 30 mins in presence of relaxin 3 relative to control", "assay_type": "functional, cell-based", "parameters": "scale not given: the % may be the effect or the level left"}, "[16]": {"system": "Rattus norvegicus", "test": "In vivo antagonist activity at RXFP3 in Wistar rat assessed as decrease in R3/I5 induced food intake at 10 mg/kg, ip administered 1 hr prior to R3/I5 treatment and measured after 2 hrs", "assay_type": "functional, organism-based", "settings": "time 3.0 hrs"}, "[17]": {"test": "Apparent permeability of the compound across apical to basolateral side in MDCK-MDRI cells measured upto 90 min by LC-MS/MS analysis", "assay_type": "ADME, cell-based, Canis lupus familiaris", "settings": "dog, mdck-mdr1, 1.5 h"}, "[18]": {"test": "Efflux ratio of apparent permeability across basolateral to apical side over apical to basolateral side in MDCK-MDR1 cells measured upto 90 min by LC-MS/MS analysis", "assay_type": "ADME, cell-based, Canis lupus familiaris", "settings": "dog, mdck-mdr1, 1.5 h"}, "[19]": {"test": "Kinetic aqueous solubility of the compound in PBS at pH 7.4 measured after 2 hrs by LC/MS-MS method", "assay_type": "physicochemical", "settings": "buffer, pH 7.4, 2 h"}, "[20]": {"test": "Plasma protein binding in Wister rat at 1 uM measured after 6 hrs by LC-MS/MS analysis", "assay_type": "ADME, cell-free"}, "[21]": {"target": "5-hydroxytryptamine receptor 2C (Homo sapiens) (UniProt P28335)", "sequence (P28335 whole entry)": "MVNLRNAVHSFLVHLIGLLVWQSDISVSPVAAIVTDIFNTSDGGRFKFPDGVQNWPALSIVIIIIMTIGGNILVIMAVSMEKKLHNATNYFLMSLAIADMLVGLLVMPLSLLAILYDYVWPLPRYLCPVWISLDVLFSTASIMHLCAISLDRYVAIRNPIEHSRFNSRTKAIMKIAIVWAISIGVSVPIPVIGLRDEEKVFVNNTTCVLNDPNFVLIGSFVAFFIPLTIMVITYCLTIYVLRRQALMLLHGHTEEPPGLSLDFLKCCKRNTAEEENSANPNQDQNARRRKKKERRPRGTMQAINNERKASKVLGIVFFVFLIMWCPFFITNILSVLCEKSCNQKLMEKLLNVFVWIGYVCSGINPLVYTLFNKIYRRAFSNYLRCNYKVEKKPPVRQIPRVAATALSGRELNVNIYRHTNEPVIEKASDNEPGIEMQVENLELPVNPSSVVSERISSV", "test": "Inhibition of 5HT2C receptor (unknown origin) at 10 uM relative to control"}, "[22]": {"target": "Muscarinic acetylcholine receptor M2 (Homo sapiens) (UniProt P08172)", "sequence (P08172 whole entry)": "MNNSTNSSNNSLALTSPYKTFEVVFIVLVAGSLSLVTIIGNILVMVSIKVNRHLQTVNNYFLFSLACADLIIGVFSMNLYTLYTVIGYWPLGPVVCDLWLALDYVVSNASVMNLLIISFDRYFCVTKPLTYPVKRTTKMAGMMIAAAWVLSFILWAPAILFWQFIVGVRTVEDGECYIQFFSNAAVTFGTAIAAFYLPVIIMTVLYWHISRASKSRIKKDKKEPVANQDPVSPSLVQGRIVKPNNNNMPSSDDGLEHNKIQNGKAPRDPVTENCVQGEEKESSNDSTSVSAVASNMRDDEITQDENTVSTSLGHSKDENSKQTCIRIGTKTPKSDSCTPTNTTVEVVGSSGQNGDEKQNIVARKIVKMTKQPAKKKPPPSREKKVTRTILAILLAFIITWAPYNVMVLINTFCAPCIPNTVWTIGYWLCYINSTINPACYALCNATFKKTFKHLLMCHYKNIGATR", "test": "Inhibition of muscarinic M2 receptor (unknown origin) at 10 uM relative to control"}, "[23]": {"target": "T2, Sigma intracellular receptor 2 (Homo sapiens, UniProt Q5BJF2)", "T2 sequence (Q5BJF2 whole entry)": "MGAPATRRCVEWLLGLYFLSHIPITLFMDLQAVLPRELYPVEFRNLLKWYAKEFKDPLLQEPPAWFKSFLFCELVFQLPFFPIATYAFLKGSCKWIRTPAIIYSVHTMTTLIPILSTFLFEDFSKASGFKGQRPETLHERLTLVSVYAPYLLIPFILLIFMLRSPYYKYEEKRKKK", "test": "Inhibition of sigma-2 receptor (unknown origin) at 10 uM relative to control"}, "[24]": {"target": "T2, Sigma intracellular receptor 2", "test": "Inhibition of sigma-2 receptor (unknown origin)"}, "[25]": {"target": "Alpha-1A adrenergic receptor (Homo sapiens) (UniProt P35348)", "sequence (P35348 whole entry)": "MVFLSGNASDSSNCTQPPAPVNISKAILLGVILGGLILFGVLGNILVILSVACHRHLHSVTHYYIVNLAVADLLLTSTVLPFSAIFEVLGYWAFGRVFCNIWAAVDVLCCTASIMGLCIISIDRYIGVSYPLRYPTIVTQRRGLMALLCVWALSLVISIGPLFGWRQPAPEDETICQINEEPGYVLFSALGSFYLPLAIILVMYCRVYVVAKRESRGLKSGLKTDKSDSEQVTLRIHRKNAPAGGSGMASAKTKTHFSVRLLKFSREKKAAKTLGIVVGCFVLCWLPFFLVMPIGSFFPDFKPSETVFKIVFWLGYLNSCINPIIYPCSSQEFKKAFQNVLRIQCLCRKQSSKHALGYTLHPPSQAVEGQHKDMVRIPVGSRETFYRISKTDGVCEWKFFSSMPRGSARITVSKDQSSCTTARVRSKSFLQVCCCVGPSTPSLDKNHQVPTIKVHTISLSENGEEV", "test": "Inhibition of adrenergic alpha-1A receptor (unknown origin) at 10 uM relative to control"}, "[26]": {"target": "Alpha-1B adrenergic receptor (Homo sapiens) (UniProt P35368)", "sequence (P35368 whole entry)": "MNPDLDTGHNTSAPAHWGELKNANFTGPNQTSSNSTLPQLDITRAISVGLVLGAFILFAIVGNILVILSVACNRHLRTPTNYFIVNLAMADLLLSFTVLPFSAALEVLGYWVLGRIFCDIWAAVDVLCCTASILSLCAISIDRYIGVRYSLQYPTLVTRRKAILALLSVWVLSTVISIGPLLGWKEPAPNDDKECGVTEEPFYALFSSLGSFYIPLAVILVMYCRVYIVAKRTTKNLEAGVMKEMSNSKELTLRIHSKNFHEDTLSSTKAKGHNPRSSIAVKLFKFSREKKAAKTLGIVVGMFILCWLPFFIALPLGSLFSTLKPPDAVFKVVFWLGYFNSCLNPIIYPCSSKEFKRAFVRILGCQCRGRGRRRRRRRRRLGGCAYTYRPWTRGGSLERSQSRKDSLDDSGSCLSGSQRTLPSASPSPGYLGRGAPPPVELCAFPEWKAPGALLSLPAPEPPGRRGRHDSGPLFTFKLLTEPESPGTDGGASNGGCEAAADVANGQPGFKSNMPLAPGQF", "test": "Inhibition of adrenergic alpha-1B receptor (unknown origin) at 10 uM relative to control"}, "[27]": {"target": "Alpha-1D adrenergic receptor (Homo sapiens) (UniProt P25100)", "sequence (P25100 whole entry)": "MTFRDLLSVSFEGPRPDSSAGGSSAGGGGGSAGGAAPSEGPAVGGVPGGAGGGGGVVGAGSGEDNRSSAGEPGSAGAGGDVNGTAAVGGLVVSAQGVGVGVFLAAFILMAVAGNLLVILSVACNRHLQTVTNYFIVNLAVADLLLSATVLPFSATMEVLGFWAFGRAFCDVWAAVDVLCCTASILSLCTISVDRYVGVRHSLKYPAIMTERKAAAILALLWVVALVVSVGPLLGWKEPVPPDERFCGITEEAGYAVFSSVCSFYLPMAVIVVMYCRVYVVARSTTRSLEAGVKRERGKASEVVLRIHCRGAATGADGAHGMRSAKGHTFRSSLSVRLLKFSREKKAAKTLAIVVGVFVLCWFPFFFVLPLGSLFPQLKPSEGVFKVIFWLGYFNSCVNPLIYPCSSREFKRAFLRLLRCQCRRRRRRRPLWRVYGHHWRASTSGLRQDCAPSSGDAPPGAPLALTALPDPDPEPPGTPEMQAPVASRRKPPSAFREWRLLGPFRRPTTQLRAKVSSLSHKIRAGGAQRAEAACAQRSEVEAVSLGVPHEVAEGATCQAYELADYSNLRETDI", "test": "Inhibition of adrenergic alpha-1D receptor (unknown origin) at 10 uM relative to control"}, "[28]": {"target": "Alpha-2A adrenergic receptor (Homo sapiens) (UniProt P08913)", "sequence (P08913 whole entry)": "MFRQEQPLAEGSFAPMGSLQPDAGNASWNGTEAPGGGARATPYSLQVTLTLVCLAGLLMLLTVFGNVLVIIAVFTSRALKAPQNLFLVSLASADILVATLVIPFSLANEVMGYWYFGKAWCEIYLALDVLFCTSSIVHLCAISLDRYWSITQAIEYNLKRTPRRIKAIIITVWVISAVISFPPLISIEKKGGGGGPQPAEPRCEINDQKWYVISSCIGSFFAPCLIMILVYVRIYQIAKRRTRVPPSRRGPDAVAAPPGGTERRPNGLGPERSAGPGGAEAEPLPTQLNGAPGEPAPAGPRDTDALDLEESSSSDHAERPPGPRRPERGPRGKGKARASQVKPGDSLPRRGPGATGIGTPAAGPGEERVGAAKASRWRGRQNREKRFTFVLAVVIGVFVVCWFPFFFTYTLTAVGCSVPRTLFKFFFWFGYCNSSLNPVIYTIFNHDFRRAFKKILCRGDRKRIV", "test": "Inhibition of adrenergic alpha-2A receptor (unknown origin) at 10 uM relative to control"}, "[29]": {"target": "Alpha-2B adrenergic receptor (Homo sapiens) (UniProt P18089)", "sequence (P18089 whole entry)": "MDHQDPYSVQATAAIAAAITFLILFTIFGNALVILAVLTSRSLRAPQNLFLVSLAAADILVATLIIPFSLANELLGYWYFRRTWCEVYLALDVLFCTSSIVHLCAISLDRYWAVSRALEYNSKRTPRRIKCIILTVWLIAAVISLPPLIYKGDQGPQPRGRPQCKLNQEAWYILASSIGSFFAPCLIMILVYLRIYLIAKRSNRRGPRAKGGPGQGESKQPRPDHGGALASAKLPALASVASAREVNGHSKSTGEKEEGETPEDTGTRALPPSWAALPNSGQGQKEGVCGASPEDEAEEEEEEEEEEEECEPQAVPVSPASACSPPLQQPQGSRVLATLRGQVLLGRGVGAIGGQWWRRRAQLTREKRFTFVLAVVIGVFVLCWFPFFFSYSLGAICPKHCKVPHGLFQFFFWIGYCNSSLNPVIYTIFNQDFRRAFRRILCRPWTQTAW", "test": "Inhibition of adrenergic alpha-2B receptor (unknown origin) at 10 uM relative to control"}, "[30]": {"target": "Alpha-2C adrenergic receptor (Homo sapiens) (UniProt P18825)", "sequence (P18825 whole entry)": "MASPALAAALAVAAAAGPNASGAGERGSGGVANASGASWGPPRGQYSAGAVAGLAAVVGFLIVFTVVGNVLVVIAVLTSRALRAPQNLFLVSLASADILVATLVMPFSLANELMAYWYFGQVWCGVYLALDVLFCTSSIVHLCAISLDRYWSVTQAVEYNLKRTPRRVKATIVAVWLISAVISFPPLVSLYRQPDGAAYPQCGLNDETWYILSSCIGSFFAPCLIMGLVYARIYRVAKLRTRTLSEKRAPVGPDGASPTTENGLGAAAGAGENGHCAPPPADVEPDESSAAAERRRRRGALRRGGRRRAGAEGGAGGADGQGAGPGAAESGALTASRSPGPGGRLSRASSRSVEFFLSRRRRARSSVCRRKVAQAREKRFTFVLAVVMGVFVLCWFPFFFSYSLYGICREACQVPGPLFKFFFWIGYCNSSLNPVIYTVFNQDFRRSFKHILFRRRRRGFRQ", "test": "Inhibition of adrenergic alpha-2C receptor (unknown origin) at 10 uM relative to control"}, "[31]": {"target": "Beta-1 adrenergic receptor (Homo sapiens) (UniProt P08588)", "sequence (P08588 whole entry, looked up)": "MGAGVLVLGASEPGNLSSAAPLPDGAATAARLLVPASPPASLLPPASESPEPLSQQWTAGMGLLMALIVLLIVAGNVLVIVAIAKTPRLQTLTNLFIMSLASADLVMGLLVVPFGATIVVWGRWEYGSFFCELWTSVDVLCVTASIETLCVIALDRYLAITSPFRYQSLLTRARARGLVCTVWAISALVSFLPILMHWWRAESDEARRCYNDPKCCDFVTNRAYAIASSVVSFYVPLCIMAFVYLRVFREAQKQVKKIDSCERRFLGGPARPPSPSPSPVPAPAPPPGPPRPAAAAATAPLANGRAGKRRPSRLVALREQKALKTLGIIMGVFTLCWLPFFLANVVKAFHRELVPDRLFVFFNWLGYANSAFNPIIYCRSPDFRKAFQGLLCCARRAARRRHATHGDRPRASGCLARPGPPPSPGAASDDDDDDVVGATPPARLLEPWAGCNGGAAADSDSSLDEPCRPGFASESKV", "test": "Inhibition of adrenergic beta-1 receptor (unknown origin) at 10 uM relative to control"}}, "note": "Activity calls are given as the source filed them. The rule behind the calls is not given here."}
{"compound": "O=C(Nc1ccc(-c2nc(-c3ccc(Cl)cc3)no2)cc1)C1CC(=O)N(Cc2ccco2)C1", "note": "(stereo unspecified)", "values": [{"measurement": "Cmax", "setting": "[1]", "result": 1401, "unit": "ng/mL"}, {"measurement": "Cmax", "setting": "[2]", "result": 1550, "unit": "ng/mL"}, {"measurement": "Tmax", "setting": "[3]", "result": 30, "unit": "min"}, {"measurement": "Tmax", "setting": "[4]", "result": 2, "unit": "h"}, {"measurement": "CL free", "setting": "[5]", "result": 43.8, "unit": "mL/min/kg"}, {"measurement": "t1/2", "setting": "[6]", "result": 1.9, "unit": "h"}, {"measurement": "t1/2", "setting": "[7]", "result": 4.9, "unit": "h"}, {"measurement": "AUC", "setting": "[8]", "result": 5352, "unit": "ng·h/mL"}, {"measurement": "AUC(0-inf)", "setting": "[9]", "result": 12.5, "unit": "ng·h/mL"}, {"measurement": "Ratio", "setting": "[10]", "result": 2.3}, {"measurement": "IC50", "setting": "[11]", "result": 4.52, "unit": "µM"}, {"measurement": "Activity", "setting": "[12]", "result": "Active"}, {"measurement": "Activity", "setting": "[13]", "result": "Active"}, {"measurement": "IC50", "setting": "[14]", "result": 13.9, "unit": "µM"}, {"measurement": "Activity", "setting": "[15]", "result": "< 30", "unit": "%"}, {"measurement": "Activity", "setting": "[16]", "result": "Active"}, {"measurement": "Papp", "setting": "[17]", "result": "1.3 10^-6 cm/s"}, {"measurement": "Ratio", "setting": "[18]", "result": 1}, {"measurement": "Kinetic_solubility", "setting": "[19]", "result": "< 1", "unit": "µM"}, {"measurement": "PPB", "setting": "[20]", "result": 99.8, "unit": "%"}, {"measurement": "inhibition", "setting": "[21]", "result": 53, "unit": "%"}, {"measurement": "inhibition", "setting": "[22]", "result": 51, "unit": "%"}, {"measurement": "inhibition", "setting": "[23]", "result": 95, "unit": "%"}, {"measurement": "Ki", "setting": "[24]", "result": 3.2, "unit": "µM"}, {"measurement": "inhibition", "setting": "[25]", "result": "< 50", "unit": "%"}, {"measurement": "inhibition", "setting": "[26]", "result": "< 50", "unit": "%"}, {"measurement": "inhibition", "setting": "[27]", "result": "< 50", "unit": "%"}, {"measurement": "inhibition", "setting": "[28]", "result": "< 50", "unit": "%"}, {"measurement": "inhibition", "setting": "[29]", "result": "< 50", "unit": "%"}, {"measurement": "inhibition", "setting": "[30]", "result": "< 50", "unit": "%"}, {"measurement": "inhibition", "setting": "[31]", "result": "< 50", "unit": "%"}]}
